Assay results published in ChEMBL document CHEMBL4351028, “Benzoyl indoles with metabolic stability as reversal agents for ABCG2-mediated multidrug resistance” (Eur J Med Chem, 2019).
Active and inactive are the calls of the source. The calls are words filed in the database; no cut-off is given here.

Experiments:
NCI-H460 [1] = assay: Cytotoxicity against human NCI-H460 cells assessed as inhibition of cell viability incubated for 2 hrs by MTT assay; assay type: cell-based; details: NCI-H460, 2 h, read-out: IC50
[2] = Cytotoxicity against human S1-M1-80 cells assessed as inhibition of cell viability at 5 to 25 uM incubated for 2 hrs by MTT assay relative to control; assay type: cell-based; details: read-out: INH
HEK293 [3] = assay: Reversal of ABCG2 482-T7 mutant (unknown origin) expressed in HEK293 cells-mediated multidrug resistance assessed as potentiation of mitoxantrone-induced cytotoxicity at 10 to 25 uM pretreated for 2 hrs followed by mitoxantrone challenge and measured after 44 hrs by MTT assay; assay type: cell-based; details: Homo sapiens
[4] = Cytotoxicity against HEK293 cells harbouring ABCG2-482-G2 mutant assessed as inhibition of cell viability at 5 to 25 uM incubated for 2 hrs by MTT assay relative to control; assay type: ADME, cell-based; details: human, read-out: INH
ABCG2 = target: T1, ABCG2 (Homo sapiens, UniProt Q9UNQ0); assay: Competitive substrate activity at ABCG2 (unknown origin) expressed in High Five insect cell vesicle membrane assessed as stimulation of ATPase activity at 0.21 uM by PREDEASY ATPase assay relative to control; details: High Five insect cell vesicle membranes expressing ABCG2
T1 sequence (Q9UNQ0 whole entry): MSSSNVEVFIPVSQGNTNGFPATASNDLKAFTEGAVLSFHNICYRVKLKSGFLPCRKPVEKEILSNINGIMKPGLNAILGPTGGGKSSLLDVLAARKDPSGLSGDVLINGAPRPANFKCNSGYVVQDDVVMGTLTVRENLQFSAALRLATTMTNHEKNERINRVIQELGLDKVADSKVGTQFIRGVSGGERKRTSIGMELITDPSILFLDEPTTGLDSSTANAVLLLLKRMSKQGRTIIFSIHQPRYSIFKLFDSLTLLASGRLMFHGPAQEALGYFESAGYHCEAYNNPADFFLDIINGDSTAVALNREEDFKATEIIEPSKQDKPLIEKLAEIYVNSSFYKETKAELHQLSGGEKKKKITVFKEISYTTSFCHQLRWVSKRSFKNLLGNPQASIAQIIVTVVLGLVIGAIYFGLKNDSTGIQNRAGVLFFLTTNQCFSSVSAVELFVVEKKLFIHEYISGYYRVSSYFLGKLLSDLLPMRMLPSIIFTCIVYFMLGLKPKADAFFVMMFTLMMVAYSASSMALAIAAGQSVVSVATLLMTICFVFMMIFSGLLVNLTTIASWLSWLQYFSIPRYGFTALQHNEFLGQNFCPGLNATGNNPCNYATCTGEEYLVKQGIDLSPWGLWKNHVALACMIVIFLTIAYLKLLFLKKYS

[5] = Metabolic stability in human liver microsomes assessed as compound remaining at 100 uM incubated for 1 hr by HPLC analysis; assay type: ADME, Microsome; details: read-out: Stability
[6] = target: T2, Broad substrate specificity ATP-binding cassette transporter ABCG2 (Homo sapiens, UniProt Q9UNQ0); assay: Competitive substrate activity at ABCG2 (unknown origin) expressed in High Five insect cell vesicle membrane assessed as stimulation of ATPase activity up to 40 uM by PREDEASY ATPase assay relative to control
T2 sequence (Q9UNQ0 whole entry): T1 sequence (Q9UNQ0 whole entry)

[7] = target: T2, Broad substrate specificity ATP-binding cassette transporter ABCG2; assay: Reversal of ABCG2-mediated multidrug resistance in human NCI-H460/MX20 cells assessed as potentiation of mitoxantrone-induced cytotoxicity by measuring inhibition of cell proliferation pretreated for 2 hrs followed by mitoxantrone addition and measured after 44 hrs by MTT assay; assay type: cell-based
[8] = Cytotoxicity against HEK293 cells harbouring ABCG2-482-T7 mutant assessed as inhibition of cell viability at 5 to 25 uM incubated for 2 hrs by MTT assay relative to control; assay type: ADME, cell-based; details: human, read-out: INH
NCI-H460 [9] = assay: Cytotoxicity against human NCI-H460 cells assessed as concentration that causes inhibition of cell viability by <=20% incubated for 24 hrs by MTT assay; assay type: cell-based; details: nci-h460, 24 h
[10] = target: T2, Broad substrate specificity ATP-binding cassette transporter ABCG2; assay: Inhibition of ABCG2-mediated mitoxantrone efflux in human NCI-H460/MX20 cells assessed as increase in accumulation of [3H]MX at 10 uM incubated for 2 hrs followed by [3H]MX addition and measured after 2 hrs by liquid scintillation counter; assay type: cell-based
[11] = target: T2, Broad substrate specificity ATP-binding cassette transporter ABCG2; assay: Reversal of ABCG2-mediated multidrug resistance in human NCI-H460/MX20 cells assessed as potentiation of cisplatin-induced cytotoxicity at 25 uM pretreated for 2 hrs followed by cisplatin addition and measured after 44 hrs by MTT assay; assay type: cell-based
[12] = Cytotoxicity against HEK293 cells expressing wild type ABCG2-482-R2 assessed as inhibition of cell viability at 5 to 25 uM incubated for 2 hrs by MTT assay relative to control; assay type: ADME, cell-based; details: human, read-out: INH
[13] = Cytotoxicity against human NCI-H460/MX20 cells assessed as concentration that causes inhibition of cell viability by <=20% incubated for 24 hrs by MTT assay; assay type: cell-based
Homo sapiens [14] = species: Homo sapiens; assay: Effect on ABCG2 expression in human NCI-H460/MX20 cells at 25 uM incubated up to 72 hrs by Western blot analysis; assay type: functional, cell-based
HEK293 [15] = assay: Reversal of ABCG2 482-G2 mutant (unknown oirigin) expressed in HEK293 cells-mediated multidrug resistance assessed as potentiation of mitoxantrone-induced cytotoxicity at 10 to 25 uM pretreated for 2 hrs followed by mitoxantrone addition and measured after 44 hrs by MTT assay; assay type: cell-based; details: Homo sapiens
[16] = target: T2, Broad substrate specificity ATP-binding cassette transporter ABCG2; assay: Reversal of ABCG2-mediated multidrug resistance in human NCI-H460/MX20 cells assessed as potentiation of mitoxantrone-induced cytotoxicity by measuring inhibition of cell proliferation at 25 uM pretreated for 2 hrs followed by mitoxantrone addition and measured after 44 hrs by MTT assay (reference value: 24 +/- 3%); assay type: cell-based
[17] = target: T2, Broad substrate specificity ATP-binding cassette transporter ABCG2; assay: Inhibition of ABCG2-mediated mitoxantrone efflux in human NCI-H460/MX20 cells assessed as increase in accumulation of [3H]MX at 25 uM incubated for 2 hrs followed by [3H]MX addition further incubated for 2 hrs by liquid scintillation counter relative to control; assay type: cell-based
[18] = Cytotoxicity against human S1 cells assessed as inhibition of cell viability at 5 to 25 uM incubated for 2 hrs by MTT assay relative to control; assay type: cell-based; details: read-out: INH
[19] = target: T2, Broad substrate specificity ATP-binding cassette transporter ABCG2; assay: Reversal of ABCG2-mediated multidrug resistance in human S1-M1-80 cells assessed as potentiation of mitoxantrone-induced cytotoxicity at 25 uM pretreated with compound for 2 hrs followed by mitoxantrone challenge for 44 hrs by MTT assay; assay type: cell-based
[20] = target: T2, Broad substrate specificity ATP-binding cassette transporter ABCG2; assay: Competitive substrate activity at ABCG2 (unknown origin) expressed in High Five insect cell vesicle membrane assessed as stimulation of ATPase activity by PREDEASY ATPase assay
[21] = Cytotoxicity against HEK293 cells transfected with pcDNA3.1 assessed as inhibition of cell viability at 5 to 25 uM incubated for 2 by MTT assay relative to control; assay type: cell-based; details: human, read-out: INH
[22] = Cytotoxicity against human NCI-H460/MX20 cells assessed as inhibition of cell viability incubated for 2 hrs by MTT assay; assay type: cell-based; details: NCI-H460/MX20, 2 h
[23] = Cytotoxicity against human NCI-H460/MX20 cells assessed as inhibition of cell viability at 5 to 25 uM incubated for 2 hrs by MTT assay relative to control; assay type: cell-based; details: read-out: INH
[24] = Cytotoxicity against human NCI-H460 cells assessed as inhibition of cell viability at 5 to 25 uM incubated for 2 hrs by MTT assay relative to control; assay type: cell-based; details: read-out: INH
[25] = target: T2, Broad substrate specificity ATP-binding cassette transporter ABCG2; assay: Reversal of ABCG2-mediated multidrug resistance in human S1-M1-80 cells assessed as potentiation of doxorubicin-induced cytotoxicity at 25 uM pretreated with compound for 2 hrs followed by doxorubicin challenge for 44 hrs by MTT assay; assay type: cell-based
Homo sapiens [26] = species: Homo sapiens; assay: Effect on ABCG2 internalization in human NCI-H460/MX20 cells at 25 uM incubated for 72 hrs by immunofluorescence analysis; assay type: functional, cell-based
[27] = target: T2, Broad substrate specificity ATP-binding cassette transporter ABCG2; assay: Reversal of ABCG2 (unknown origin) expressed in HEK293 cells-mediated multidrug resistance assessed as potentiation of mitoxantrone-induced cytotoxicity at 10 to 25 uM pretreated for 2 hrs followed by mitoxantrone addition and measured after 44 hrs by MTT assay; assay type: cell-based; details: hek293, 44 h
[28] = target: T2, Broad substrate specificity ATP-binding cassette transporter ABCG2; assay: Reversal of ABCG2-mediated multidrug resistance in human NCI-H460/MX20 cells assessed as potentiation of mitoxantrone-induced cytotoxicity at 10 to 25 uM pretreated with compound for 2 hrs followed by mitoxantrone challenge for 44 hrs by MTT assay; assay type: cell-based

## COc1ccc(C(=O)c2ccc3[nH]cc(C(=O)c4ccc(OC)cc4)c3c2OC)cc1
NCI-H460 [1]
  IC50: > 100 µM
[2]
  cytotoxicity at 2 h, up to 25 µM: < 20%
HEK293 [3]
  Activity: Active
[4]
  cytotoxicity at 2 h, up to 25 µM: < 20%
ABCG2
  Emax at 0.21 µM: 50%
[5]
  remaining at 1 h, 100 µM: 56%
[6]
  fold change (FC): 3.01
[7]
  inhibition (INH): Dose-dependent effect
[8]
  cytotoxicity at 2 h, up to 25 µM: < 20%
NCI-H460 [9]
  Activity: 25 µM
[10]
  Activity: Active
[11]
  Activity: Not Active
[12]
  cytotoxicity at 2 h, up to 25 µM: < 20%
[13]
  Activity: 25 µM
Homo sapiens [14]
  Activity: inactive
HEK293 [15]
  Activity: Active
[16]
  inhibition at 25 µM: > 87%
[17]
  fold change (FC): 3
[18]
  cytotoxicity at 2 h, up to 25 µM: < 20%
[19]
  Activity: Active
[20]
  Activity: Dose-dependent effect
[21]
  cytotoxicity at up to 25 µM: < 20%
[22]
  IC50: > 100 µM
[23]
  cytotoxicity at 2 h, up to 25 µM: < 20%
[24]
  cytotoxicity at 2 h, up to 25 µM: < 20%
[25]
  Activity: Active
Homo sapiens [26]
  Activity: inactive
[27]
  Activity: Active
[28]
  Activity: Active
